Legend:
Kv1.3 potassium channel = target: T1, Kv1.3 potassium channel (Homo sapiens, UniProt P22001); assay: Kv1.3 potassium channel blocker activity, automated whole-cell patch clamp (Patchliner) in CHO-K1 cells stably expressing Kv1.3; format: cell-based; conditions: 30 nM-100 μM
T1 construct: expressed in transfected cells
Procedure, shortened: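 Whole-cell automated patch clamp in CHO-K1 cells, pH 7.4 external/7.2 internal; 100 ms steps from −90 to +40 mV at 0.1 Hz, 20-pulse trains. Cumulative 30 nM–100 μM on one cell, ≤10 s per concentration; last-pulse current normalized to control, IC50 from Hill fit.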

hERG channel = target: T2, hERG channel (Homo sapiens, UniProt Q12809); assay: hERG electrophysiology, automated whole-cell patch clamp (Patchliner) in CHO-K1 cells stably expressing hERG; format: cell-based; conditions: 30 nM-100 μM
T2 construct: expressed in transfected cells
Protocol: This assay is used to evaluate the disclosed compounds' inhibition activities against the hERG channel.
CHO-K1 cells stably expressing hERG were grown in Ham's F-12 Medium with glutamine containing 10% heat-inactivated FBS, 1% penicillin/streptomycin, hygromycin (100 μg/ml) and G418 (100 μg/ml). Cells were grown in culture flasks at 37° C. in a 5% CO2-humidified incubator.
The cells were bathed in an extracellular solution containing 140 mM NaCl, 4 mM KCl, 2 mM CaCl2), 1 mM MgCl2, 5 mM Glucose, 10 mM HEPES; pH adjusted to 7.4 with NaOH; 295-305 mOsm. The internal solution contained 50 mM KCl, 10 mM NaCl, 60 mM KF, 20 mM EGTA, 10 mM HEPES; pH adjusted to 7.2 with KOH; 285 mOsm. All compounds were dissolved in DMSO at 30 mM. Compound stock solutions were freshly diluted with external solution to concentrations of 30 nM, 100 nM, 300 nM, 1 μM, 3 μM, 10 μM, 30 μM and 100 μM. The highest content of DMSO (0.3%) was present in 100 μM.
The voltage protocol (see Table B) was designed to simulate voltage changes during a cardiac action potential with a 300 ms depolarization to +20 mV (analogous to the plateau phase of the cardiac action potential), a repolarization for 300 ms to −50 mV (inducing a tail current) and a final step to the holding potential of −80 mV. The pulse frequency was 0.3 Hz. Control (compound-free) and compound pulse trains for each compound concentration applied contained 70 pulses.
Whole-cell current recordings and compound application were enabled by means of an automated patch clamp platform Patchliner (Nanion). EPC 10 patch clamp amplifier (HEKA) along with Patchmaster software (HEKA Elektronik Dr. Schulze GmbH) was used for data acquisition. Data were sampled at 10 kHz without filtering. Increasing compound concentrations were applied consecutively to the same cell without washouts in between.
AUC and PEAK values were obtained with Patchmaster (HEKA Elektronik Dr. Schulze GmbH). To determine IC50 the last single pulse in the pulse train corresponding to a given compound concentration was used. Obtained AUC and PEAK values in the presence of compound were normalized to control values in the absence of compound. Using Origin (OridinLab), IC50 was derived from data fit to Hill equation: Icompound/Icontrol=(100−A)/(1+([compound]/IC50)nH)+A, where IC50 is the concentration at which current inhibition is half-maximal, [compound] is the applied compound concentration, A is the fraction of current that is not blocked and nH is the Hill coefficient.

T1 sequence (P22001 whole entry): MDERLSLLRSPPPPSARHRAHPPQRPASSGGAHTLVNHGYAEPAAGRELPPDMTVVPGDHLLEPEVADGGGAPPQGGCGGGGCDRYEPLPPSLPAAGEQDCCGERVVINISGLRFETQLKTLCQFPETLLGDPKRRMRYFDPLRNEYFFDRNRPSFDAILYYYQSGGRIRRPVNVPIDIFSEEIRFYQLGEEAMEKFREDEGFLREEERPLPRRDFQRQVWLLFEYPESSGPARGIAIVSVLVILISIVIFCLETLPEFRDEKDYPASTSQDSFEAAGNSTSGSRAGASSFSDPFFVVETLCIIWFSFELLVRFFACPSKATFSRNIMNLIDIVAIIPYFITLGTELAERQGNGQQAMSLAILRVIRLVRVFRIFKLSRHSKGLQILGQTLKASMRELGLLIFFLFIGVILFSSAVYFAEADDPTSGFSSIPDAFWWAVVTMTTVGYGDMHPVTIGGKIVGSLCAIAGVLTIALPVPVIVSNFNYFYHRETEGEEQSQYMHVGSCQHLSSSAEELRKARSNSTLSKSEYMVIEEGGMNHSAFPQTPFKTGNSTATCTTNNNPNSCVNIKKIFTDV
T2 sequence (Q12809 whole entry): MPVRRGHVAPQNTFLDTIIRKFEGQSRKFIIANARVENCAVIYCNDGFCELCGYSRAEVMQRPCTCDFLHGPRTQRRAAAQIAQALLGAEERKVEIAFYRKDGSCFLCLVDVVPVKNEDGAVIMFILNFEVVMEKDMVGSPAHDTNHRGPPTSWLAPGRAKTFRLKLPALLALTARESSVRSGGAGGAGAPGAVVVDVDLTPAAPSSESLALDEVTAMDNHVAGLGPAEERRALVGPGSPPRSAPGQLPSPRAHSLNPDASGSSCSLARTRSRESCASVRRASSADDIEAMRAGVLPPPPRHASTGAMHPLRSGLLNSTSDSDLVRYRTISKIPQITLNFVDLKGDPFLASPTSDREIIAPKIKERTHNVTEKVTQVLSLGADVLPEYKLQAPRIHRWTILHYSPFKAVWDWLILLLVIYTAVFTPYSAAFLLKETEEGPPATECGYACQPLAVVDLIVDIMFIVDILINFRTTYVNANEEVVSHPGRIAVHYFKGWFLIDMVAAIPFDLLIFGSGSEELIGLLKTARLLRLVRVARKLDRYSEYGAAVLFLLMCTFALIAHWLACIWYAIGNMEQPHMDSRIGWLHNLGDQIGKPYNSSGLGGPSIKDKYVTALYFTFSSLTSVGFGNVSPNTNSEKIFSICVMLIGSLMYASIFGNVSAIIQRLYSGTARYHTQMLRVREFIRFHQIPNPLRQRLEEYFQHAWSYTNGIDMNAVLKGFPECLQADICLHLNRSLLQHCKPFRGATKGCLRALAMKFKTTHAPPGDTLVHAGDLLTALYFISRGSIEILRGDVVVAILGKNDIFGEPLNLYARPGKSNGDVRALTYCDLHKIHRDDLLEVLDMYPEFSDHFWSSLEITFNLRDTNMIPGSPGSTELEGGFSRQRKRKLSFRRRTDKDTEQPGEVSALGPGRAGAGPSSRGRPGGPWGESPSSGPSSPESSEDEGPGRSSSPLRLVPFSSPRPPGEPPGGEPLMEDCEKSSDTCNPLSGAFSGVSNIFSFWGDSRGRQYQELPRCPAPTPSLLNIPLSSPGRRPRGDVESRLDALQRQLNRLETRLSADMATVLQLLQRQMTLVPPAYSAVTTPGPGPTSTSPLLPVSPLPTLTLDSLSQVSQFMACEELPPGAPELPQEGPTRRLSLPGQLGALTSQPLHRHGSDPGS

SMILES: COC[C@@H]1C[C@H](C(=O)N2CC[C@]3(C2)C(=O)Nc2cc(Cl)c(Cl)cc23)CN1 [Compound 109, (3S)-5,6-dichloro-1′-[(3S,5S)-5-(methoxymethyl)pyrrolidine-3-carbonyl]-1H-spiro[indole-3,3′-pyrrolidin]-2-one]
- IC50 (Kv1.3 potassium channel): < 1 µM
- IC50 (hERG channel): > 30 µM

SMILES: O=C([C@H]1CC[C@@](O)(CO)C1)N1CC[C@]2(C1)C(=O)Nc1cc(Cl)c(Cl)cc12 (relative stereo) [Compound 97, (S)-5,6-dichloro-1′-((1R,3R)-rel-3-hydroxy-3-(hydroxymethyl)cyclopentane-1-carbonyl)spiro[indoline-3,3′-pyrrolidin]-2-one isomer 1]
- IC50 (Kv1.3 potassium channel): < 1 µM
- IC50 (hERG channel): > 100 µM

SMILES: O=C(C1CCNCC1)N1CC[C@]2(C1)C(=O)Nc1cc(Cl)c(Cl)cc12 [Compound 21, (S)-5,6-dichloro-1′-(piperidine-4-carbonyl)spiro[indoline-3,3′-pyrrolidin]-2-one]
- IC50 (Kv1.3 potassium channel): < 1 µM
- IC50 (hERG channel): > 100 µM

SMILES: O=C(CO)N1CC[C@]2(C1)C(=O)Nc1c2cc(Cl)c(Cl)c1Cl [Compound 121, (3S)-5,6,7-trichloro-1′-(2-hydroxyacetyl)-1H-spiro[indole-3,3′-pyrrolidin]-2-one]
- IC50 (Kv1.3 potassium channel): < 0.3 µM
- IC50 (hERG channel): > 10 µM

SMILES: Nc1cc(C(=O)N2CC[C@]3(C2)C(=O)Nc2cc(Cl)c(Cl)cc23)ccn1 [Compound 42, (S)-1′-(2-aminoisonicotinoyl)-5,6-dichlorospiro[indoline-3,3′-pyrrolidin]-2-one]
- IC50 (Kv1.3 potassium channel): < 0.3 µM
- IC50 (hERG channel): > 10 µM

SMILES: O=C([C@H]1C[C@@H](O)[C@@H](O)C1)N1CC[C@]2(C1)C(=O)Nc1cc(Cl)c(Cl)cc12 [Compound 102, (3S)-5,6-dichloro-1′-[(1R,3R,43)-3,4-dihydroxycyclopentanecarbonyl]-1H-spiro[indole-3,3′-pyrrolidin]-2-one]
- IC50 (Kv1.3 potassium channel): < 1 µM
- IC50 (hERG channel): > 100 µM

SMILES: O=C([C@H]1CNC[C@H]1O)N1CC[C@]2(C1)C(=O)Nc1cc(Cl)c(Cl)cc12 (single isomer, unassigned) [Compound 2]
- IC50 (Kv1.3 potassium channel): < 0.3 µM
- IC50 (hERG channel): > 100 µM

SMILES: O=C([C@H]1CC[C@H](O)C1)N1CC[C@]2(C1)C(=O)Nc1cc(Cl)c(Cl)cc12 (single isomer, unassigned; isomer 1) [Compound 63]
- IC50 (Kv1.3 potassium channel): < 1 µM
- IC50 (hERG channel): > 30 µM

SMILES: O=C(N1CC[C@]2(C1)C(=O)Nc1cc(Cl)c(Cl)cc12)[C@]1(F)CCCNC1 [Compound 49, (S)-5,6-dichloro-1′-((S)-3-fluoropiperidine-3-carbonyl)spiro[indoline-3,3′-pyrrolidin]-2-one]
- IC50 (Kv1.3 potassium channel): < 0.3 µM
- IC50 (hERG channel): > 3 µM

SMILES: Cc1[nH]ncc1C(=O)N1CC[C@]2(C1)C(=O)Nc1cc(Cl)c(Cl)cc12 [Compound 71, (S)-5,6-dichloro-1′-(5-methyl-1H-pyrazol-4-carbonyl)spiro[indoline-3,3′-pyrrolidin]-2-one]
- IC50 (Kv1.3 potassium channel): < 1 µM
- IC50 (hERG channel): > 30 µM

SMILES: O=C([C@H]1CN[C@@H](CO)C1)N1CC[C@]2(C1)C(=O)Nc1cc(Cl)c(Cl)cc12 [Compound 116, (S)-5,6-dichloro-1′-((3R,5R)-5-(hydroxymethyl)pyrrolidine-3-carbonyl)spiro[indoline-3,3′-pyrrolidin]-2-one]
- IC50 (Kv1.3 potassium channel): < 0.1 µM
- IC50 (hERG channel): > 100 µM

SMILES: O=C(C1C[C@@H](O)[C@H](O)C1)N1CC[C@]2(C1)C(=O)Nc1cc(Cl)c(Cl)cc12 (single isomer, unassigned; isomer 1) [Compound 105]
- IC50 (Kv1.3 potassium channel): < 0.3 µM
- IC50 (hERG channel): > 100 µM

SMILES: O=C(CCCO)N1CC[C@]2(C1)C(=O)Nc1cc(Cl)c(Cl)cc12 [Compound 56, (S)-5,6-dichloro-1′-(4-hydroxybutanoyl)spiro[indoline-3,3′-pyrrolidin]-2-one]
- IC50 (Kv1.3 potassium channel): < 3 µM
- IC50 (hERG channel): > 100 µM

SMILES: C[C@@H](O)C(=O)N1CC[C@]2(C1)C(=O)Nc1cc(Cl)c(Cl)cc12 [Compound 13, (S)-5,6-dichloro-1′-((R)-2-hydroxypropanoyl)spiro[indoline-3,3′-pyrrolidin]-2-one]
- IC50 (Kv1.3 potassium channel): < 1 µM
- IC50 (hERG channel): > 100 µM

SMILES: O=C([C@H]1CC[C@](O)(CO)C1)N1CC[C@]2(C1)C(=O)Nc1cc(Cl)c(Cl)cc12 (relative stereo) [Compound 95, (S)-5,6-dichloro-1′-((1R,3S)-rel-3-hydroxy-3-(hydroxymethyl)cyclopentane-1-carbonyl)spiro[indoline-3,3′-pyrrolidin]-2-one isomer 1]
- IC50 (Kv1.3 potassium channel): < 1 µM
- IC50 (hERG channel): > 100 µM

SMILES: COC[C@H]1C[C@H](C(=O)N2CC[C@]3(C2)C(=O)Nc2cc(Cl)c(Cl)cc23)CN1 [Compound 112, (S)-5,6-dichloro-1′-((3S,5R)-5-(methoxymethyl)pyrrolidine-3-carbonyl)spiro[indoline-3,3′-pyrrolidin]-2-one]
- IC50 (Kv1.3 potassium channel): < 0.3 µM
- IC50 (hERG channel): > 100 µM

SMILES: O=C([C@@H]1CC[C@@H](O)[C@H](O)C1)N1CC[C@]2(C1)C(=O)Nc1cc(Cl)c(Cl)cc12 (single isomer, unassigned; isomer 2) [Compound 104]
- IC50 (Kv1.3 potassium channel): < 0.3 µM
- IC50 (hERG channel): > 100 µM

SMILES: O=C([C@@H]1CCNC1)N1CC[C@]2(C1)C(=O)Nc1cc(Cl)c(Cl)cc12 [Compound 14, (S)-5,6-dichloro-1′-((R)-pyrrolidine-3-carbonyl)spiro[indoline-3,3′-pyrrolidin]-2-one]
- IC50 (Kv1.3 potassium channel): < 0.3 µM
- IC50 (hERG channel): > 100 µM

SMILES: O=C1Nc2cc(Cl)c(Cl)cc2[C@]12CCN(C(=O)[C@H]1C[C@@](O)(CO)C1)C2 [Compound 94, (3S)-5,6-dichloro-1′-[(1s,3s)-3-hydroxy-3-(hydroxymethyl)cyclobutanecarbonyl]-1H-spiro[indole-3,3′-pyrrolidin]-2-one]
- IC50 (Kv1.3 potassium channel): < 1 µM
- IC50 (hERG channel): > 100 µM

Reference: patent US20240391926A1, “SPIROINDOLINONE COMPOUNDS AS Kv1.3 POTASSIUM SHAKER CHANNEL BLOCKERS” (D.E. Shaw Research, LLC, priority 2021, published 2024)
